Experimental data reported in patent US6905841B2, “Enzymatic substrates for detecting Pseudomonas aeruginas” (Biomerieux S.A., priority 1999, dated 2005).

Legend:
Assay in all cases: Vitek 2 cards, broth with β-Alanyl p-nitroanilide
β-alanine aminopeptidase [1] = conditions: Pseudomonas aeruginosa; 4 strains tested; read after 19 hours
β-alanine aminopeptidase [2] = conditions: Enterobacter aerogenes; 2 strains tested; read after 19 hours
β-alanine aminopeptidase [3] = conditions: Ralstonia pickettii; 1 strain tested; read after 19 hours
β-alanine aminopeptidase [4] = conditions: Escherichia coli; 2 strains tested; read after 19 hours
β-alanine aminopeptidase [5] = conditions: Serratia liquefaciens; 1 strain tested; read after 19 hours
β-alanine aminopeptidase [6] = conditions: Citrobacter freundii; 2 strains tested; read after 19 hours
β-alanine aminopeptidase [7] = conditions: Sphingomonas paucimobilis; 2 strains tested; read after 19 hours
β-alanine aminopeptidase [8] = conditions: Chryseobacterium meningosepticum; 1 strain tested; read after 19 hours
β-alanine aminopeptidase [9] = conditions: Brevundimonas diminuta; 1 strain tested; read after 19 hours
β-alanine aminopeptidase [10] = conditions: Shewanella algae; 1 strain tested; read after 19 hours
β-alanine aminopeptidase [11] = conditions: Burkholderia vesicularis; 1 strain tested; read after 19 hours
β-alanine aminopeptidase [12] = conditions: Aeromonas hydrophila; 2 strains tested; read after 19 hours
β-alanine aminopeptidase [13] = conditions: Klebsiella oxytoca; 2 strains tested; read after 19 hours
β-alanine aminopeptidase [14] = conditions: Acinetobacter baumannii; 2 strains tested; read after 19 hours
β-alanine aminopeptidase [15] = conditions: Enterobacter intermedius; 1 strain tested; read after 19 hours
β-alanine aminopeptidase [16] = conditions: Klebsiella pneumoniae; 2 strains tested; read after 19 hours
β-alanine aminopeptidase [17] = conditions: Citrobacter koseri; 1 strain tested; read after 19 hours
β-alanine aminopeptidase [18] = conditions: Proteus vulgaris; 1 strain tested; read after 19 hours
β-alanine aminopeptidase [19] = conditions: Serratia marcescens; 1 strain tested; read after 19 hours
β-alanine aminopeptidase [20] = conditions: Enterobacter cloacae; 2 strains tested; read after 19 hours
β-alanine aminopeptidase [21] = conditions: Salmonella arizonae; 1 strain tested; read after 19 hours
β-alanine aminopeptidase [22] = conditions: Providencia stuartii; 1 strain tested; read after 19 hours
β-alanine aminopeptidase [23] = conditions: Moraxella non liquefaciens; 2 strains tested; read after 19 hours
β-alanine aminopeptidase [24] = conditions: Achromobacter xylosoxydans; 2 strains tested; read after 19 hours
β-alanine aminopeptidase [25] = conditions: Citrobacter amalonaticus; 2 strains tested; read after 19 hours
β-alanine aminopeptidase [26] = conditions: Pseudomonas putida; 1 strain tested; read after 19 hours
β-alanine aminopeptidase [27] = conditions: Vibrio vulnificus; 1 strain tested; read after 19 hours
β-alanine aminopeptidase [28] = type: cell-based; conditions: Myroïdes spp.; 1 strain tested; read after 19 hours
β-alanine aminopeptidase [29] = conditions: Proteus mirabilis; 2 strains tested; read after 19 hours
β-alanine aminopeptidase [30] = conditions: Pseudomonas stutzeri; 3 strains tested; read after 19 hours
β-alanine aminopeptidase [31] = conditions: Stenotrophomonas maltophilia; 2 strains tested; read after 19 hours

NCCC(=O)Nc1ccc([N+](=O)[O-])cc1 [β-Alanyl-p-nitroanilide, β-Alanine p-nitroanilide]
2: Number of negative results (β-alanine aminopeptidase [2]) | Number of negative results (β-alanine aminopeptidase [4]) | Number of negative results (β-alanine aminopeptidase [6]) | Number of negative results (β-alanine aminopeptidase [7]) | Number of negative results (β-alanine aminopeptidase [12]) | Number of negative results (β-alanine aminopeptidase [13]) | Number of negative results (β-alanine aminopeptidase [14]) | Number of negative results (β-alanine aminopeptidase [16]) | Number of negative results (β-alanine aminopeptidase [20]) | Number of negative results (β-alanine aminopeptidase [23]) | Number of negative results (β-alanine aminopeptidase [24]) | Number of negative results (β-alanine aminopeptidase [25]) | Number of negative results (β-alanine aminopeptidase [29]) | Number of negative results (β-alanine aminopeptidase [31])
1: Number of negative results (β-alanine aminopeptidase [3]) | Number positive results (β-alanine aminopeptidase [5]) | Number of negative results (β-alanine aminopeptidase [8]) | Number of negative results (β-alanine aminopeptidase [9]) | Number of negative results (β-alanine aminopeptidase [10]) | Number of negative results (β-alanine aminopeptidase [11]) | Number of negative results (β-alanine aminopeptidase [15]) | Number of negative results (β-alanine aminopeptidase [17]) | Number of negative results (β-alanine aminopeptidase [18]) | Number positive results (β-alanine aminopeptidase [19]) | Number of negative results (β-alanine aminopeptidase [21]) | Number of negative results (β-alanine aminopeptidase [22]) | Number of negative results (β-alanine aminopeptidase [26]) | Number of negative results (β-alanine aminopeptidase [27]) | Number of negative results (β-alanine aminopeptidase [28])
0: Number of negative results (β-alanine aminopeptidase [1]) | Number positive results (β-alanine aminopeptidase [2]) | Number positive results (β-alanine aminopeptidase [3]) | Number positive results (β-alanine aminopeptidase [4]) | Number of negative results (β-alanine aminopeptidase [5]) | Number positive results (β-alanine aminopeptidase [6]) | Number positive results (β-alanine aminopeptidase [7]) | Number positive results (β-alanine aminopeptidase [8]) | Number positive results (β-alanine aminopeptidase [9]) | Number positive results (β-alanine aminopeptidase [10]) | Number positive results (β-alanine aminopeptidase [11]) | Number positive results (β-alanine aminopeptidase [12]) | Number positive results (β-alanine aminopeptidase [13]) | Number positive results (β-alanine aminopeptidase [14]) | Number positive results (β-alanine aminopeptidase [15]) | Number positive results (β-alanine aminopeptidase [16]) | Number positive results (β-alanine aminopeptidase [17]) | Number positive results (β-alanine aminopeptidase [18]) | Number of negative results (β-alanine aminopeptidase [19]) | Number positive results (β-alanine aminopeptidase [20]) | Number positive results (β-alanine aminopeptidase [21]) | Number positive results (β-alanine aminopeptidase [22]) | Number positive results (β-alanine aminopeptidase [23]) | Number positive results (β-alanine aminopeptidase [24]) | Number positive results (β-alanine aminopeptidase [25]) | Number positive results (β-alanine aminopeptidase [26]) | Number positive results (β-alanine aminopeptidase [27]) | Number positive results (β-alanine aminopeptidase [28]) | Number positive results (β-alanine aminopeptidase [29]) | Number positive results (β-alanine aminopeptidase [30]) | Number positive results (β-alanine aminopeptidase [31])
4: Number positive results (β-alanine aminopeptidase [1])
3: Number of negative results (β-alanine aminopeptidase [30])
